In BigSolDB 2.1:

C#CC(C)(C)NC(=O)c1cc(Cl)cc(Cl)c1
solubility (mole fraction)
Settings	278.15 K	283.15 K	288.15 K	293.15 K	298.15 K	303.15 K	308.15 K	313.15 K	318.15 K	323.15 K
in cyclohexane	–	0.000135	0.000185	0.000293	0.000425	0.000544	0.000704	0.00081	0.00101	0.00124
in ethanol	0.0071	0.00834	0.00953	0.011	0.0131	0.0151	0.0174	0.0205	0.0242	0.0295
in isopropanol	0.00219	0.00269	0.00351	0.00526	0.00705	0.00865	0.0112	0.0137	0.0171	0.023
in methanol	0.00654	0.0077	0.00892	0.0101	0.0124	0.0145	0.017	0.0201	0.0236	0.0283
in toluene	0.00179	0.00238	0.00298	0.00368	0.00467	0.00593	0.00735	0.00924	0.0113	0.0124
